Patent US20100168099A1, “1H-QUINOLIN-4-ONE COMPOUNDS, WITH AFFINITY FOR THE GABA RECEPTOR, PROCESSES, USES AND COMPOSITIONS” (FERRER INTERNACIONAL, S.A., priority 2006, published 2010)

Experiments:
α2-GABAA receptor = assay: Ligand-binding assay, radiolabeled flumazenil competition, spinal cord membranes; set-up: species or system rat; settings: rat spinal cord membranes, radiolabeled flumazenil 1 nM
Experimental: (§1) a) Ligand-binding Assays. Determination of the Affinity of Test Compounds for α1- and α2-GABAA, Receptor
(§2) Male Sprague-Dawley rats weighing 200-250 g at the time of experiment were used. After decapitation of the animal, the cerebellum (tissue that mostly contains α1-GABAA receptor) and spinal cord (tissue that mostly contains α2-GABAA receptor) were removed. The membranes were prepared according to the method by J. Lameh et al. (Prog. Neuro-Psychopharmacol. Biol. Psychiatry, 24, 979-991, 2000) and H. Noguchi et al. (Eur J Pharm, 434, 21-28, 2002) with slight modifications. Once the tissues weighed, they were suspended in 50 mM Tris.HCl (pH 7.4), 1:40 (v/v), or sucrose 0.32 M in the case of spinal cord, homogenized and then centrifuged at 20,000 g for 10 min at 7° C. The resulting pellet was resuspended under the same conditions and centrifuged again. The pellet was finally resuspended on a minimum volume and kept at −80° C. overnight. On the next day, the process was repeated until the final pellet was resuspended at a ratio of 1:10 (v/v) in the case of cerebellum and at a ratio of 1:5 (v/v) in the case of spinal cord.
(§3) Affinity was determined by competitive tests using radiolabeled flumazenil as ligand. The tests were performed according to the methods described by S. Arbilla et al. (Eur. J. Pharmacol., 130, 257-263, 1986); and Y. Wu et al. (Eur. J. Pharmacol., 278, 125-132, 1995) using 96-well microtiter plates. The membranes containing the study receptors, flumazenil (radiolabeling at a final concentration of 1 nM) and ascending concentrations of test compounds (in a total volume of 230 μL in 50 mM [pH 7.4] Tris.HCl buffer) were incubated. Simultaneously, the membranes were only incubated with the radiolabeled flumazenil (total binding, 100%) and in the presence of an elevated concentration of unradiolabeled flumazenil (non-specific binding, % estimation of radiolabeled ligand). The reactions started on adding the radiolabeled ligand followed by incubation for 60 minutes at 4° C. At the end of the incubation period, 200 μL of reaction were transferred to a multiscreen plate (Millipore) and filtered using a vacuum manifold and then washed three times with cold test buffer. The multiscreen plates were equipped with a GF/B filter that retained the membranes containing the receptors and the radiolabeled ligand which had been bound to the receptors. After washing, the plates were left till dry. Once dried, scintillation liquid was added and left under stirring overnight. The next day the plates were counted using a Perkin-Elmer Microbeta scintillation counter.
(§4) For analysis of the results the percentage of specific binding for every concentration of test compound was calculated as follows:
(§5) % specific binding=(X−N/T−N)×100
(§6) where, X: amount of bound ligand for every concentration of compound. T: total binding, maximum amount bound to the radiolabeled ligand. N: non-specific binding, amount of radiolabeled ligand bound in a non-specific way irrespective of the receptor used.
(§7) Every concentrations of compound were tested in triplicate and their mean values were used to determine the experimental values of % specific binding versus the concentration of compound. Affinity data are expressed as % inhibition at 10^−5M and 10^−7M concentrations.

α1-GABAA receptor = assay: Ligand-binding assay, radiolabeled flumazenil competition, cerebellum membranes; set-up: species or system rat; settings: for Affinity for the α1-subunit of the GABAA receptor, % inhibition: rat cerebellum membranes, radiolabeled flumazenil 1 nM; for α1-/α2-selectivity (in words): compared with zolpidem
Experimental: as §1, §2, §3, §4, §5, §6, §7

[1] = tested on: spontaneous motor activity of male CD1 mice; assay: In vivo predictive sedation-hypnosis test (traveled distance); settings: Mus musculus, ip, 0.5 h, 98 μmol/kg, single intraperitoneal dose, 30 minutes after dosing (first 5 min discarded), versus control
Experimental: b) In Vivo Determination of Predictive Sedative-Hypnotic Action
The in vivo effects of these compounds were assessed by a predictive sedation-hypnosis test in mice (D. J. Sanger et al., Eur. J. Pharmacol., 313, 35-42, 1996; and G. Griebel et al., Psychopharmacology, 146, 205-213, 1999).
Groups of 5-8 male CD1 mice, weighing 22-26 g at the time of test, were used. The test compounds were administered in single equimolecular intraperitoneal doses, suspended in 0.25% agar with one drop of Tween in a volume of 10 mL/kg. Control animals received the vehicle alone. Using a Smart System (Panlab, S. L., Spain) the traveled distance in cm was recorded for each mouse at 5 min intervals during a period of 30 minutes after dosing. The inhibition percentage traveled distance of treated animals versus control animals (the first 5 min were discarded) was calculated.

Row | SMILES | Affinity for the α2-subunit of the GABAA receptor, % inhibition (α2-GABAA receptor; 10^−5M) [%] | Affinity for the α2-subunit of the GABAA receptor, % inhibition (α2-GABAA receptor; 10^−7M) [%] | Affinity for the α1-subunit of the GABAA receptor, % inhibition (α1-GABAA receptor; 10^−5M) [%] | Affinity for the α1-subunit of the GABAA receptor, % inhibition (α1-GABAA receptor; 10^−7M) [%] | α1-/α2-selectivity (in words) (α1-GABAA receptor) | inhibition in vivo at 98 µmol/kg [1] [%]
1 | Cc1ccc2c(=O)c(-c3ccccc3)cn(CC(=O)N3CCCC3)c2c1 [Example 18, 7-Methyl-1-(2-oxo-2-pyrrolidin-1-yl-ethyl)-3-phenyl-1H-quinolin-4-one] | 66.3 | 0.0 | 86.2 | 7.5 | higher α1-/α2-selectivity than the most selective therapeutically used compound zolpidem | 84.5
2 | Cc1ccc2c(=O)c(-c3ccccc3)cn(CC(=O)N3CCCCC3)c2c1 [Example 15, 7-Methyl-1-(2-oxo-2-piperidin-1-yl-ethyl)-3-phenyl-1H-quinolin-4-one] | 13.3 | 0.0 | 87.3 | 0.0 | higher α1-/α2-selectivity than the most selective therapeutically used compound zolpidem | 84.7
3 | Cc1ccc2c(=O)c(-c3ccccc3)cn(CC(=O)c3ccccn3)c2c1 [Example 28, 7-Methyl-1-(2-oxo-2-pyridin-2-yl-ethyl)-3-phenyl-1H-quinolin-4-one] | 88.0 | 0.0 | 97.9 | 22.5 | – | 84.4
4 | C=CCN(CC=C)C(=O)Cn1cc(-c2ccc(OC)cc2)c(=O)c2ccc(C)cc21 [Example 97, N,N-Diallyl-2-[3-(4-methoxy-phenyl)-7-methyl-4-oxo-4H-quinolin-1-yl]-acetamide] | 62.0 | 0.0 | 90.7 | 4.9 | – | 76.8
